Laboratory results from patent publication US11395803B2, “Composition for controlled release of physiologically active substances and process for its preparation” (BIOSCREEN TECHNOLOGIES S.R.L., priority 2017, dated 2022).

Experiments:
[1] = Total bioavailability, in vitro (combination of ruminal bypass and post-ruminal digestibility, Boisen method)
[2] = Post-ruminal digestibility, in vitro (pharmaceutical dissolver, Boisen Test)
Protocol: Whereas, the term “post-ruminal digestibility” of a substance means the percentage amount by weight of substance that is freed from the coating exclusively in the post-ruminal tract, dissolving and so making it digestible or absorbable, with respect to the total amount by weight of the orally administered substance.
The experimental conditions of use were 39° C., 15 rpm, 8 hours presence in the solution with “ruminal” pH of about 6.8. • Daisy^II ANKOM: commercially available laboratory artificial rumen, for determining the degree of ruminal bypass. The experimental conditions of use were 39° C., 8 hours presence in ruminal conditions, buffer solution at “ruminal” pH with insertion of “ruminal inoculum” and re-creation of ruminal anaerobiosis according to a university procedure known to those skilled in the art. The pH normally tested in the quality control phase is 6.8. • Pharmaceutical dissolver for determining the degree of post-ruminal digestibility. The experimental conditions of use followed the procedure known to experts in the field as “Boisen Test” and, in particular, they were: • 39° C., 30 rpm, 2 h, buffer solution with “gastric” pH (2.0)+pepsin inoculum. • 39° C., 30 rpm, 4 h, buffer solution with “intestinal” pH (6.8)+pancreatine inoculum. • 39° C., 30 rpm, 18 h, buffer solution with “intestinal” pH (6.8)+lipase and bile extract inoculum. […]

[3] = Degree of ruminal bypass, in vitro (pharmaceutical dissolver / Daisy II ANKOM artificial rumen)
Protocol: In the context of the present invention, the term “ruminal by-pass” indicates the percentage amount by weight of substance reaching the animal post-ruminal area, namely the stomach and the intestine, with respect to the total amount by weight of the orally administered substance.
The experimental conditions of use were 39° C., 15 rpm, 8 hours presence in the solution with “ruminal” pH of about 6.8. • Daisy^II ANKOM: commercially available laboratory artificial rumen, for determining the degree of ruminal bypass. The experimental conditions of use were 39° C., 8 hours presence in ruminal conditions, buffer solution at “ruminal” pH with insertion of “ruminal inoculum” and re-creation of ruminal anaerobiosis according to a university procedure known to those skilled in the art. The pH normally tested in the quality control phase is 6.8. • Pharmaceutical dissolver for determining the degree of post-ruminal digestibility. The experimental conditions of use followed the procedure known to experts in the field as “Boisen Test” and, in particular, they were: • 39° C., 30 rpm, 2 h, buffer solution with “gastric” pH (2.0)+pepsin inoculum. • 39° C., 30 rpm, 4 h, buffer solution with “intestinal” pH (6.8)+pancreatine inoculum. • 39° C., 30 rpm, 18 h, buffer solution with “intestinal” pH (6.8)+lipase and bile extract inoculum.
Then the microgranules were subjected to an evaluation of the degree of ruminal by-pass, post-ruminal digestibility and total bioavailability using the Boisen method. For a complete description of the Boisen method, reference is made to the publication S. Boisen, J. A. Fernàndez “Prediction of total tract digestibility of energy feedstuffs and […] by in vitro analyses” Animal Feed Science Technology 68, 277-286, 1997.

[4] = theoretical administration of 100 g of choline chloride
[5] = theoretical administration of 200 g of product

## C[N+](C)(C)CCO.[Cl-] [Product A, choline chloride]
[1]; [4]
  Bioavailable Choline Chloride: 0 g
[1]; [5]
  Bioavailable Choline Chloride: 0 g
[2]; [4]
  Choline Chloride in faeces: 0 g
[2]; [5]
  Choline Chloride in faeces: 0 g
[3]; [4]
  Bypassed Choline Chloride: 0 g
  Choline Chloride lost in the rumen in 8 h: 101 g
[3]; [5]
  Bypassed Choline Chloride: 0 g
  Choline Chloride lost in the rumen in 8 h: 198 g
